The values below come from patent publication US9328138B2 (priority 2011, dated 2016).

Assay [1] deals with HCV NS3 protease genotype 3a (3A-1) (Hepatitis C virus genotype 3a, UniProt Q81258). The experiment in a line: HCV NS3 protease time-resolved fluorescence (TRF) assay, genotype 3a. The format is biochemical. The following applies: Ki 3a. In short, it runs like this:
(§1)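 Pre-incubation of NS3/NS4A protease with inhibitor for 10 min in pH 7.5 HEPES buffer with 10 mM DTT; 25 nM TRF peptide substrate, hydrolysis 6 h at room temperature. Fluorescence read at ex 340/em 615 nm with 400 μs delay, enzyme level set for S/B 5-20; IC50 by four-parameter fit.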

Assay [2] concerns the target T1, HCV genotype 1b (BK) NS3 modified enzyme with a R155K mutation (Hepatitis C virus genotype 1b, UniProt P26663, R1181K).
T1 construct: HCV genotype 1b (BK) NS3 modified enzyme
In words: HCV NS3 protease time-resolved fluorescence (TRF) assay, genotype 1b R155K. The following applies: Ki 1b R155K. The format is biochemical. In short, it runs like this:
as §1

The mark [3] stands for this setting: first of two values printed in the cell (not explained).
[4] abbreviates: second of two values printed in the cell (not explained).
Setting [5] is: genotype 1b (BK) NS3 R155K, single value.

Usually Ki stands for the dissociation constant of the complex between target and ligand, obtained from inhibition or displacement. Low readings indicate higher affinity, high ones lower affinity. Consider `C=C[C@@H]1C[C@]1(NC(=O)[C@@H]1C[C@@H]2CN1C(=O)[C@H](C1CCCCC1)NC(=O)O[C@@H]1C[C@H]1CCCCCc1c(nc3c(F)cccc3c1OC1CCN(C)CC1)O2)C(=O)NS(=O)(=O)C1(C)CC1` [Example 286, (1aR,5S,8S,10R,22aR)-5-cyclohexyl-N-[(1R,2S)-2-ethenyl-1-{[(1-methylcyclopropyl)sulfonyl]carbamoyl}cyclopropyl]-13-fluoro-17-[(1-methylpiperidin-4-yl)oxy]-3,6-dioxo-1,1a,3,4,5,6,9,10,18,19,20,21,22,22a-tetradecahydro-8H-7,10-methanocyclopropa[18,19][1,10,3,6]dioxadiazacyclononadecino[11,12-b]quinoline-8-carboxamide], for which the values for the Ki in assay [1], in assay [2] (setting [3]) and in assay [2] (setting [4]) were 0.515 nM, 0.022 nM and 0.094 nM, respectively.
Turning to `C=C[C@@H]1C[C@]1(NC(=O)[C@@H]1C[C@@H]2CN1C(=O)[C@H](C(C)(C)C)NC(=O)O[C@@H]1C[C@H]1CCCCCc1c(nc3ccccc3c1OCCCN1CCC3(CCCC3)C1)O2)C(=O)NS(=O)(=O)C1(C)CC1` [Example 207, (1aR,5S,8S,10R,22aR)-17-[3-(2-azaspiro[4.4]non-2-yl)propoxy]-5-tert-butyl-N-[(1R,2S)-2-ethenyl-1-{[(1-methylcylcopropyl)sulfonyl]carbamoyl}cyclopropyl]-3,6-dioxo-1,1a,3,4,5,7,9, 10,18,19,20,21,22,22a-tetradecahydro-8H-7,10-methanocyclopropa[18,19][1,10,3,6] dioxadiazacyclononadecino[11,12-b] quinoline-8-carboxamide], the Ki in assay [1] is 1.3 nM; in assay [2] (setting [5]), 0.11 nM.
On to `C=CC1C[C@]1(NC(=O)[C@@H]1C[C@@H]2CN1C(=O)[C@H](C1CCCC1)NC(=O)O[C@@H]1CCC[C@H]1CC/C=C/Cc1c(nc3ccccc3c1OCCN1C(=O)CCC1=O)O2)C(=O)NS(=O)(=O)C1CC1` (stereo partly drawn) [Example 76, (3aR,7S,10S,12R,21E,24a)-7-cyclo pentyl-N-{(1R,2S)-1-[(cyclopropylsulfonyl)carbamoyl]-2-ethenylcyclopropyl}-19-[2-(2,5-dioxopyrrolidin-1-yl)ethoxy]-5,8-dioxo-1,2,3,3a,5,6,7,8,11,12,20,23,24,24a-tetradeca hydro-10H-9,12-methanocyclopenta[18,19][1,10,3,6] dioxadiazacyclononadecino[11,12-b] quinoline-10-carboxamide], for which the figures for the Ki in assay [1] and in assay [2] (setting [5]) were 0.71 nM and 0.09 nM, respectively.
In the case of `C=CC1C[C@]1(NC(=O)[C@@H]1C[C@@H]2CN1C(=O)[C@H](C(C)(C)C)NC(=O)O[C@@H]1CCC[C@H]1CCCCCc1c(nc3ccccc3c1OCCN1CCOCC1)O2)C(=O)NS(=O)(=O)C1(COCCOC)CC1` (stereo partly drawn) [Example 65, (3aR,7S,10S,12R, 24aR)-7-tert-butyl-N-{(1R,2S)-2-ethenyl-1-[({1-[(2-methoxyethoxy)methyl]cyclopropyl}sulfonyl)carbamoyl]cyclopropyl}-19-[2-(morpholin-4-yl)ethoxy]-5,8-dioxo-1,2,3,3a,5,6,7,8,11, 12,20,21,22,23,24, 24a-hexadecahydro-10H-9,12-methanocyclopenta [18,19][1,10,3,6] dioxadiaza-cyclononadecino [11,12-b]quinoline-10-carboxamide], the Ki in assay [1] stood at 16 nM; in assay [2] (setting [5]) it was 0.56 nM.
In the case of `C=C[C@@H]1C[C@]1(NC(=O)[C@@H]1C[C@@H]2CN1C(=O)[C@H](C(C)(C)C)NC(=O)O[C@@H]1C[C@H]1CCCCCc1c(nc3ccccc3c1OCCN1CC3(CCC3)C1)O2)C(=O)NS(=O)(=O)C1(C)CC1` [Example 136, (1aR,5S,8S,10R,22aR)-17-[2-(2-azaspiro[3.3]hept-2-yl)ethoxy]-5-tert-butyl-N-[(1R,2S)-2-ethenyl-1-{[(1-methylcyclopropyl)sulfonyl]carbamoyl}cyclopropyl]-3,6-dioxo-1,1a,3,4,5,6,9,10,18,19,20,21,22,22a-tetradecahydro-8H-7,10-methanocyclopropa[18,19][1,10,3,6] dioxadiazacyclononadecino [11,12-b]quinoline-8-carboxamide], the results for the Ki in assay [1] and in assay [2] (setting [5]) were 5.1 nM and 0.58 nM, respectively.
With `C=C[C@@H]1C[C@]1(NC(=O)[C@@H]1C[C@@H]2CN1C(=O)[C@H](C1CCCCC1)NC(=O)O[C@@H]1C[C@H]1CCCCCc1c(nc3c(OC)cccc3c1OCC1CN(C(=O)OC(C)(C)C)C1)O2)C(=O)NS(=O)(=O)C1(C)CC1` [Example 215, tent-butyl 3-[({(1aS,5R,8S,10R,22aR)-5-cyclohexyl-8-[(2-ethenyl-1-{[(1-methylcyclopropyl)sulfonyl]carbamoyl}cyclopropyl)carbamoyl]-13-methoxy-3,6-dioxo-1,1a,3,4,5,6,9,10,18,19,20,21,22,22a-tetradecahydro-8H-7,10-methanocyclopropa[18,19][1,10,3,6]dioxadiazacyclononadecino[11,12-b]quinolin-1'7-yl}oxy)methyl]azetidine-1-carboxylate], the Ki in assay [1] was found to be 55 nM; in assay [2] (setting [5]) it was 1.7 nM.
The like results for `C=C[C@@H]1C[C@]1(NC(=O)[C@@H]1C[C@@H]2CN1C(=O)[C@H](C(C)(C)C)NC(=O)O[C@@H]1CCC[C@H]1CC/C=C/Cc1c(nc3ccccc3c1OCCCN1CCOCC1)O2)C(=O)NS(=O)(=O)C1(C)CC1` [Example 91, (3aR,7S,10S,12R,21E,24aS)-7-tert-butyl-N-[(1R,2S)-2-ethenyl-1-{[(1-methylcyclopropyl)sulfonyl]carbamoyl}cyclopropyl]-19-[3-(morpholin-4-yl)propoxy]-5,8-dioxo-1,2,3,3a,5,6,7,8,11,12,20,23,24,24a-tetradecahydro-10H-9,12-methanocyclopenta[18,19][1,10,3,6] dioxadiazacyclononadecino[11,12-b] quinoline-10-carboxamide] were, in that order, 1 nM and 0.16 nM.
Taken in the same sequence, the figures for `C=C[C@@H]1C[C@]1(NC(=O)[C@@H]1C[C@@H]2CN1C(=O)[C@H](C1CCCC1)NC(=O)O[C@@H]1CCC[C@H]1CC/C=C/Cc1c(nc3ccccc3c1OCCO)O2)C(=O)NS(=O)(=O)C1CC1` [Example 69, (3aR,7S,10S,12R,21E,24aS)-7-cyclopentyl-N-{(1R,2S)-1-[(cyclopropylsulfonyl)carbamoyl]-2-ethenylcyclopropyl}-19-(2-hydroxyethoxy)-5,8-dioxo-1,2,3,3a,5,6,7,8,11,12,20,23,24,24a-tetradecahydro-10H-9,12-methanocyclopenta[18,19][1,10,3,6]dioxadiazacyclononadecino[11,12-b]quinoline-10-carboxamide] were 1.8 nM and < 0.016 nM.
With `C=C[C@@H]1C[C@]1(NC(=O)[C@@H]1C[C@@H]2CN1C(=O)[C@H](C(C)(C)C)NC(=O)O[C@@H]1C[C@H]1CCCCCc1c(nc3ccccc3c1OCCCN(C)Cc1ncc[nH]1)O2)C(=O)NS(=O)(=O)C1(C)CC1` [Example 200, (1aR,5S,8S,10R,22aR)-5-tert-butyl-N-[(1R,2S)-2-ethenyl-1-{[(1-methylcyclopropyl)sulfonyl]carbamoyl}cylcopropyl]-17-{3-[(1H-imidazol-2-ylmethyl)(methyl)amino]propoxy}-3,6-dioxo-1,1a,3,4,5,6,9,10,18, 19,20,21,22,22a-tetradecahydro-8H-7,10-methanocyclopropa[18,19][1,10,3,6] dioxadiazacyclononadecino[11,12-b] quinoline-8-carboxamide], the Ki in assay [1] is 0.96 nM; in assay [2] (setting [5]) it was 0.074 nM.
For `C=C[C@@H]1C[C@]1(NC(=O)[C@@H]1C[C@@H]2CN1C(=O)[C@H](C(C)(C)C)NC(=O)O[C@@H]1C[C@H]1CCCCCc1c(nc3ccccc3c1-c1ccncc1)O2)C(=O)NS(=O)(=O)C1(C)CC1` [Example 244, (1aR,5S,8S,10R,22aR)-5-tert-butyl-N-[(1R,2S)-2-ethenyl-1-{[(1-methylcyclopropyl)sulfonyl]carbamoyl}cyclopropyl]-3,6-dioxo-17-(pyridin-4-yl)-1,1a,3,4,5,6,9,10,18,19,20,21,22,22a-tetradecahydro-8H-7,10-methanocyclopropa[18,19][1,10,3,6]dioxadiazacyclononadecino[11,12-b]quinoline-8-carboxamide], the Ki in assay [1] stood at 296 nM; in assay [2] (setting [3]), 1.59 nM; in assay [2] (setting [4]), 1.65 nM.
Regarding `C=C[C@@H]1CC1(NC(=O)[C@@H]1C[C@@H]2CN1C(=O)[C@H](C1CCCCC1)NC(=O)O[C@@H]1C[C@H]1CCCCCc1c(nc3ccccc3c1OC1CCN(CCOC(F)(F)F)CC1)O2)C(=O)NS(=O)(=O)C1(C)CC1` (stereo partly drawn) [Example 262, potassium {[(1R,2S)-1-({[(1aR,5S,8S,10R,22aR)-5-cyclohexyl-3,6-dioxo-17-({1-[2-(trifluoromethoxy)ethyl]piperidin-4-yl}oxy)-1,1a,3,4,5,6,9,10,18,19,20,21,22,22a-tetradecahydro-8H-7,10-methanocyclopropa[18,19][1,10,3,6]dioxadiazacyclononadecino[11,12-b]quinolin-8-yl]carbonyl}amino)-2-ethenylcyclopropyl]carbonyl}[(1-methylcyclopropyl)sulfonyl]azanide], the Ki in assay [1] came out at 1.2 nM; in assay [2] (setting [3]) it was 0.018 nM; in assay [2] (setting [4]) it was 0.12 nM.
As for `C=C[C@@H]1C[C@]1(NC(=O)[C@@H]1C[C@@H]2CN1C(=O)[C@H](C(C)(C)C)NC(=O)O[C@@H]1C[C@H]1CCCCCc1c(nc3cc(F)ccc3c1OCCCN1CCOCC1)O2)C(=O)NS(=O)(=O)C1(C)CC1` [Example 152, (1aR,5S,8S,10R,22aR)-5-tert-butyl-N-[(1R,2S)-2-ethenyl-1-{[(1-methylcyclopropyl)sulfonyl]carbamoyl}cyclopropyl]-14-fluoro-17-[3-(morpholin-4-yl)propoxy]-3,6-dioxo-1,1a,3,4,5,6,9, 10,18,19,20,21,22,22a-tetradecahydro-8H-7,10-methanocyclopropa[18,19] [1,10,3,6]dioxadiaza cyclononadecino[11,12-b]quinoline-8-carboxamide], the inhibition constant Ki in assay [1] came out at 1.5 nM; in assay [2] (setting [5]) it was 0.25 nM.
